The values below are quoted from earlier work in publication PMC8198792, “Prediction of Anticancer Peptides with High Efficacy and Low Toxicity by Hybrid Model Based on 3D Structure of Peptides” (International Journal of Molecular Sciences, 2021).

Data set [1] has as its system erythrocytes. The conditions noted are these: cited from earlier work. The text has this:
Supplement ijms-22-05630-s001.zip/Hemloytic Peptides(seguence).xlsx, sheet "HD1" | column: Activity || Supplement ijms-22-05630-s001.zip/Hemloytic Peptides(seguence).xlsx, sheet "HD2" | column: Activity || Supplement ijms-22-05630-s001.zip/Hemloytic Peptides(seguence).xlsx, sheet "HD3" | column: Activity

Data set [2] relates to cancer cell lines. Also on record: method as in 6 sources, ref CancerPPD [45] and SATPdb ||| ref CancerPPD/SATPdb ||| ref CancerPPD, SATPdb, Swissprot (PDB) ||| ref CancerPPD/SATPdb/Swissprot(PDB) ||| ref CancerPPD / SATPdb ||| ... The conditions noted are these: cited from earlier work. The text has this: Supplement ijms-22-05630-s001.zip/ACPs(seguence).xlsx, sheet "D1" | column: Activity || Supplement ijms-22-05630-s001.zip/ACPs(seguence).xlsx, sheet "D2" | column: Activity || Supplement ijms-22-05630-s001.zip/ACPs(seguence).xlsx, sheet "D3" | column: Activity || (+ 2 further places)

The mark [3] stands for this setting: hemolytic peptides dataset HD3, 1 = hemolytic (positive set), 0 = non-hemolytic (negative set), labels taken from databases, ref Hemolytik/SATPdb.
Where [4] appears, read: natural hemolytic peptide dataset HD1, label collected from databases, ref Hemolytik [49], SATPdb [34].
[5] abbreviates: ACPs dataset D3 (sheet "D3"), label 1 = ACP, 0 = non-ACP, ref CancerPPD/SATPdb.
Where [6] appears, read: ACPs dataset D4 (sheet "D4"), label 1 = ACP, 0 = non-ACP, ref CancerPPD / SATPdb.
Setting [7] is: ACPs dataset D5, sheet "D5", label 1 = ACP, 0 = non-ACP, ref CancerPPD [45] and SATPdb.
Where [8] appears, read: ACPs dataset D1, 1 = ACP (positive), 0 = non-ACP (negative), label taken from databases, ref CancerPPD [45] and SATPdb.
Setting [9] is: ACPs dataset D4 (sheet "D4"), label 1 = ACP (CancerPPD ID), 0 = non-ACP (non-anticancer AMP, SATPdb ID), ref CancerPPD [45] and SATPdb.
Where [10] appears, read: ACPs dataset D3 (supplement sheet "D3"), 1 = ACP, 0 = non-ACP, ref CancerPPD [45] and SATPdb.
[11] abbreviates: ACPs dataset D4 (sheet "D4"), label 1 = ACP, experimentally validated ACPs, ref CancerPPD [45] and SATPdb.
Setting [12] is: ACPs dataset D5 (sheet "D5"), label 1 = ACP (positive set), sequences with CancerPPD/SATPdb ID, ref CancerPPD, SATPdb.
Where [13] appears, read: ACPs dataset sheet D2, 1 = ACP (CancerPPD/SATPdb ID), 0 = non-ACP (Swissprot/PDB ID), ref CancerPPD, SATPdb, Swissprot (PDB).
Setting [14] is: ACPs dataset D1, label 1 = ACP, 0 = non-ACP (non-anticancer AMPs from SATPdb), ref CancerPPD/SATPdb.
The mark [15] stands for this setting: ACPs dataset D2 (supplement ACPs(seguence).xlsx, sheet D2), dataset label 1/0 (ACP / non-ACP), entries identified by Swissprot(PDB ID), ref CancerPPD/SATPdb/Swissprot(PDB).
[16] abbreviates: ACPs dataset D5 (sheet "D5"), label 1 = ACP (positive set), 0 = non-ACP (negative set), ref CancerPPD [45] and SATPdb.

Like-named read-outs stand apart in the source and are kept apart here.

For AAGMGFFGAR [satpdb25191], the Activity is 0 in data set [1] (Hemolytic peptides dataset HD2, label 1 = hemolytic, 0 = non-hemolytic, ref Hemolytik/SATPdb) and 0 in data set [1] (setting [3]).
AKKVFKRLEKLFSKIWNDK [satpdb16260]: in data set [1], the Activity is 0 and the “Activity (dataset HD1, hemolytic 1 / non-hemolytic 0)” value is 0.
Turning to AKKVFKRLEKSFSKIQNDK [satpdb11458], in data set [1], the Activity is reported as 0 and the “Activity (dataset HD1, hemolytic 1 / non-hemolytic 0)” value was 0.
Consider AKKVSKRLEKLFSKIQNDK [satpdb19605], for which, in data set [1], the Activity is 0 and the “Activity (dataset HD1, hemolytic 1 / non-hemolytic 0)” value is 0.
For the substance “ALLHHGLNCAKGVLAALLHHGLNCAKGVLA [satpdb21285]”, in data set [1], the Activity is on record as 0 and the “Activity (dataset HD1, hemolytic 1 / non-hemolytic 0)” value is recorded as 0.
For the substance ALWKTLLKKVLKA [satpdb11740], the Activity in data set [1] is 1.
On to “CGESCVFIPCVTALLGCSCKSKVCYKNSIP [satpdb12547]”, for which the Activity in data set [1] (setting [3]) is recorded as 1. Besides, the “Activity (dataset HD1, hemolytic 1 / non-hemolytic 0)” value in data set [1] (setting [4]) is recorded as 1.
Take CKLLKTFLSKWIC [compound 3456]: the Activity in data set [1] is 1.
Turning to CKTRTSTNTDHLWIAKSKARLSET [satpdb28106], in data set [1], the Activity is 0 and the “Activity (dataset HD1, hemolytic 1 / non-hemolytic 0)” value was 0.
On to CVHWQTNPARTSCIGP [satpdb12022], for which, in data set [1], the Activity is listed as 0 and the “Activity (dataset HD1, hemolytic 1 / non-hemolytic 0)” value is 0.
Consider CVISAGWNHKIRCKLTGNC [satpdb27441], for which, in data set [1], the Activity is listed as 0 and the “Activity (dataset HD1, hemolytic 1 / non-hemolytic 0)” value is given as 0.
Turning to “CYCRIPACIAGERRYGTCIYQGRLWAFCC [satpdb11499]”, in data set [1], the Activity is recorded as 1 and the “Activity (dataset HD1, hemolytic 1 / non-hemolytic 0)” value was 1.
As for DANVENGEDAEDLTDKFIGLMG [satpdb17330], in data set [1], the Activity is given as 0 and the “Activity (dataset HD1, hemolytic 1 / non-hemolytic 0)” value is reported as 0.
Consider DSHEKRHHGYKRKFHEKHHSHRGY [satpdb14665], for which, in data set [1], the Activity is reported as 0 and the “Activity (dataset HD1, hemolytic 1 / non-hemolytic 0)” value is given as 0.
Take DVNDLKNLCAKTHNLLPMCAMFGKK [satpdb20310]: in data set [1], the Activity is 0 and the “Activity (dataset HD1, hemolytic 1 / non-hemolytic 0)” value is given as 0.
Consider EMLKKKEVKMERKT [satpdb18957], for which, in data set [1], the Activity is given as 0 and the “Activity (dataset HD1, hemolytic 1 / non-hemolytic 0)” value is given as 0.
As for “ENAEEDIVLMENLFCSYIVGSADSFWT [satpdb18741]”, in data set [1], the Activity was 0 and the “Activity (dataset HD1, hemolytic 1 / non-hemolytic 0)” value was 0.
As to ENMFNIKSSVESDSFWG [satpdb15776], in data set [1], the Activity was 0 and the “Activity (dataset HD1, hemolytic 1 / non-hemolytic 0)” value was 0.
In the case of EWGRRCCGWGPGRRYCRRWC [satpdb13121], the Activity in data set [1] (setting [3]) is 0. Further, the “Activity (dataset HD1, hemolytic 1 / non-hemolytic 0)” value in data set [1] (setting [4]) was 0.
On to FDWDSVLKGVEGFVRGYF [satpdb25715], for which, in data set [1], the Activity is 0 and the “Activity (dataset HD1, hemolytic 1 / non-hemolytic 0)” value is on record as 0.
In the case of FGVLAKVAAHVVPAIAEHF [satpdb27842], the Activity in data set [1] is on record as 0.
With FIFPKKNIINSLFGR [satpdb24412], the Activity in data set [1] (setting [3]) is 0. In addition, the “Activity (dataset HD1, hemolytic 1 / non-hemolytic 0)” value in data set [1] (setting [4]) is 0.
Regarding “FKCRRWQWRWKKLGAKPVPIIYCNRRTGKCQRM [satpdb24174]”, in data set [1], the Activity is recorded as 0 and the “Activity (dataset HD1, hemolytic 1 / non-hemolytic 0)” value is 0.
With FKTWKRPPFQTSCSGIIKE [satpdb21275], in data set [1], the Activity is on record as 0 and the “Activity (dataset HD1, hemolytic 1 / non-hemolytic 0)” value is on record as 0.
With FLGPIIKIATGILPTAICKILKKC [satpdb24144], in data set [1], the Activity is recorded as 0 and the “Activity (dataset HD1, hemolytic 1 / non-hemolytic 0)” value is 0.
As to FLPLIGRVLSGIL [satpdb12693], the Activity in data set [1] is 1.
In the case of FLPLLLAGLPKLLCLFFKKC [satpdb14955], in data set [1], the Activity was 1 and the “Activity (dataset HD1, hemolytic 1 / non-hemolytic 0)” value was 1.
Consider FLPLVLGALSGILPKILGK [satpdb12081], for which, in data set [1], the Activity is listed as 1 and the “Activity (dataset HD1, hemolytic 1 / non-hemolytic 0)” value is 1.
For the substance FLSLIPHAINAVSAIAKHF [satpdb17651], the Activity in data set [1] was 0.
As for FLSLIPHAINAVSAIAKHN [satpdb11891], the Activity in data set [1] is 1.
Take FSPQMLQDIIEAATAIL [satpdb19301]: the Activity in data set [1] (setting [3]) is reported as 0. Also, the “Activity (dataset HD1, hemolytic 1 / non-hemolytic 0)” value in data set [1] (setting [4]) is 0.
As to GCRFCCNCCPNMSGCGVCCRF [satpdb21740], the Activity in data set [1] (setting [3]) is recorded as 0. Besides, the “Activity (dataset HD1, hemolytic 1 / non-hemolytic 0)” value in data set [1] (setting [4]) is listed as 0.
For the substance VKLLVyPLKVKLyP [satpdb13876], the Activity in data set [2] (setting [5]), in data set [2] (setting [6]) and in data set [2] (setting [7]) was 0 in each case.
On to “VLSIVACSSGCGSGKTAASCVETCGNRCFTNVGSLC [satpdb10613]”, for which the Activity in data set [2] (setting [8]) and in data set [2] (setting [9]) was 0 each time.
Regarding VOLKfPVOLfP [satpdb14846], the Activity in data set [2] (setting [5]), in data set [2] (setting [6]) and in data set [2] (setting [7]) was 0 in each case.
Consider VOLOfPVOLfP [satpdb12074], for which the Activity in data set [2] (setting [5]), in data set [2] (setting [6]) and in data set [2] (setting [7]) was 0 in each case.
Consider VRRFPWWWAFLRR [satpdb11783], for which the Activity in data set [2] (setting [10]), in data set [2] (setting [6]) and in data set [2] (setting [7]) was 0 throughout.
For the substance VSRRRRRRGGRRRR [satpdb11057], the Activity in data set [2] (setting [8]) and in data set [2] (setting [9]) was 0 in each case.
Consider VVGSPSAQDEASPL [satpdb16227], for which the Activity in data set [2] (setting [8]), in data set [2] (setting [11]), in data set [2] (setting [12]) and in data set [2] (setting [13]) was 1 each time.
For VVKCSYRLGSPDSQCN [satpdb13432], the Activity in data set [2] (setting [14]) and in data set [2] (setting [6]) was 0 each time.
With WDLVVVSAGVAEVGV [satpdb12938], the Activity in data set [2] (setting [8]), in data set [2] (setting [11]), in data set [2] (setting [12]) and in data set [2] (setting [13]) was 1 each time.
For WKSYVRRWRSR [satpdb10329], the Activity in data set [2] (setting [8]) and in data set [2] (setting [9]) was 0 each time.
With “WNPFKELERAGQRVRDAIISAAPAVATVGQAAAIARG [satpdb12131]”, the Activity in data set [2] (setting [14]) and in data set [2] (setting [9]) was 0 in each case.
As for “WYVKKCLNDVGICKKKCKPEEMHVKNGWAMCGKGRDCCVPAD [satpdb13381]”, the Activity in data set [2] (setting [14]) and in data set [2] (setting [6]) was 0 in each case.
Turning to “YGRKKRRQRRRREADFFWSLCTADMS [compound 3718]”, the Activity in data set [2] (setting [8]), in data set [2] (setting [11]), in data set [2] (setting [12]) and in data set [2] (setting [13]) was 1 throughout.
For the substance “YITCLFRGARCRVYSGRSCCFGYYCRRDFPGSIFGTCSRRNF [2DCW NMR - A 1-42]”, the Activity in data set [2] (setting [15]) and in data set [2] (setting [16]) was 0 each time.
“YNRLCIKPRDWIDECDSNEGGERAYFRNGKGGCDSFWICPEDHTGADYYSSYRDCFNACI [1D0D X-ray 1.62,A,1-60]”: the Activity in data set [2] (setting [15]) and in data set [2] (setting [7]) was 0 in each case.
Turning to “YRGGYTGPIPRPPPIGRPPLRLVVCACYRLS [satpdb12661]”, the Activity in data set [2] (setting [14]) and in data set [2] (setting [9]) was 0 in each case.
Take YTMNPRKLFDY [satpdb15978]: the Activity in data set [2] (setting [8]), in data set [2] (setting [11]), in data set [2] (setting [12]) and in data set [2] (setting [13]) was 1 in each case.
“kWkSFLkTFkSLKkTVLHTLLkAISS [compound 1231]”: the Activity in data set [2] (setting [10]), in data set [2] (setting [9]) and in data set [2] (setting [16]) was 1 in each case.
Regarding “rrrrrrrrGEDIIRNIARHAAQVGASMDR [compound 4239]”, the Activity in data set [2] (setting [10]), in data set [2] (setting [9]) and in data set [2] (setting [16]) was 1 in each case.
As for “rrrrrrrrGEDIIRNIARHLAQVGDSMDR [compound 4227]”, the Activity in data set [2] (setting [10]), in data set [2] (setting [9]) and in data set [2] (setting [16]) was 1 in each case.
